Results on 18 compounds are retold here after US10689414B2 (Agios Pharmaceuticals, Inc., priority 2013, dated 2020).

For this assay, the system named is U87MG cells. The assay can be described thus: Cellular assay, inhibition of 2-HG production in U87MG cells. Format: cell-based. To be noted: Homo sapiens, U-87 MG, 48 h. In a few lines: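 HT1080 or U87MG cells (U87MG kept with 500 ug/mL G418) seeded at 5000 cells/well and treated with compound at 0.2% final DMSO. Incubated 48 h at 37 °C. 2-HG inhibition determined by LC-MS. Viability read by CellTiter-Glo luminescence at 72 h post-dose.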

On to `N#Cc1ccnc(N2C(=O)CC[C@H]2C(=O)N(c2cccc(F)c2)[C@H](C(=O)NC2CCC(F)(F)CC2)c2ccccc2Cl)n1` [Compound 85, (S)—N—((S)-1-(2-Chlorophenyl)-2-((4,4-difluorocyclohexyl)amino)-2-oxoethyl)-1-(4-cyanopyrimidin-2-yl)-N-(3-fluorophenyl)-5-oxopyrrolidine-2-carboxamide], for which the IC50 is < 0.1 µM. Regarding `N#Cc1ccnc(N2C(=O)CC[C@H]2C(=O)N(c2cc(F)ccc2F)[C@H](C(=O)NC2CC(F)(F)C2)c2ccccc2Cl)c1` [Compound 197, (S)—N—((S)-1-(2-Chlorophenyl)-2-((3,3-difluorocyclobutyl)amino)-2-oxoethyl)-1-(4-cyanopyridin-2-yl)-N-(2,5-difluorophenyl)-5-oxopyrrolidine-2-carboxamide], the half-maximal inhibitory concentration (IC50) is < 0.1 µM.

Take `C[S@+]([O-])c1cc(F)cc(N(C(=O)[C@@H]2CCC(=O)N2c2cc(C#N)ccn2)[C@H](C(=O)NC2CC(F)(F)C2)c2ccccc2Cl)c1` [Compound 190, (S)—N—((S)-1-(2-Chlorophenyl)-2-(3,3-difluorocyclobutylamino)-2-oxoethyl)-1-(4-cyanopyridin-2-yl)-N-(3-fluoro-5-((S)-methylsulfinyl)phenyl)-5-oxopyrrolidine-2-carboxamide]: the concentration for half-maximal inhibition (IC50) is < 0.1 µM.

For the compound `O=C(NC1CC(F)(F)C1)[C@H](c1ccccc1Cl)N(C(=O)[C@@H]1CCC(=O)N1c1ncccn1)c1cc(F)cc(F)c1` [Compound 70, (S)—N—((S)-1-(2-Chlorophenyl)-2-((3,3-difluorocyclobutyl)amino)-2-oxoethyl)-N-(3,5-difluoro-phenyl)-5-oxo-1-(pyrimidin-2-yl)pyrrolidine-2-carboxamide], the IC50 was < 0.1 µM. As for `N#Cc1ccnc(N2C(=O)CN(CCO)C[C@H]2C(=O)N(c2cc(F)cc(F)c2)[C@H](C(=O)NC2CC(F)(F)C2)c2ccccc2Cl)c1` [Compound 107, (S)—N—((S)-1-(2-chlorophenyl)-2-((3,3-difluorocyclobutyl)amino)-2-oxoethyl)-1-(4-cyanopyridin-2-yl)-N-(3,5-difluorophenyl)-4-(2-hydroxyethyl)-6-oxopiperazine-2-carboxamide], the 50% inhibitory concentration (IC50) is < 0.1 µM.

Take `N#Cc1ccnc(N2C(=O)OCC[C@H]2C(=O)N(c2cc(F)cc(F)c2)[C@H](C(=O)NC2CC(F)(F)C2)c2ccccc2Cl)c1` [Compound 133, (S)—N—((S)-1-(2-Chlorophenyl)-2-((3,3-difluorocyclobutyl)amino)-2-oxoethyl)-3-(4-cyanopyridin-2-yl)-N-(3,5-difluorophenyl)-2-oxo-1,3-oxazinane-4-carboxamide]: the IC50 was < 0.1 µM. The value for `N#Cc1ccnc(N2C(=O)[C@@H](O)C[C@H]2C(=O)N(c2cccc(F)c2)[C@H](C(=O)NC2CCC(F)(F)CC2)c2ccccc2Cl)c1` [Compound 172, (2S,4S)—N—((S)-1-(2-Chlorophenyl)-2-((4,4-difluorocyclohexyl)amino)-2-oxoethyl)-1-(4-cyano-pyridin-2-yl)-N-(3-fluorophenyl)-4-hydroxy-5-oxopyrrolidine-2-carboxamide] was < 0.1 µM; that for `O=C(NC1CCC(F)(F)CC1)[C@H](c1ccccc1Cl)N(C(=O)[C@@H]1CCC(=O)N1c1ncccn1)c1cccc(F)c1` [Compound 4, (S)—N—((S)-1-(2-chlorophenyl)-2-((4,4-difluorocyclohexyl)amino)-2-oxoethyl)-N-(3-fluoro-phenyl)-5-oxo-1-(pyrimidin-2-yl)pyrrolidine-2-carboxamide] was < 0.1 µM. With `N#Cc1ccnc(N2C(=O)CC[C@H]2C(=O)N(c2ccc3[nH]ncc3c2)[C@H](C(=O)NC2CC(F)(F)C2)c2ccccc2Cl)c1` [Compound 175, (S)—N—((S)-1-(2-Chlorophenyl)-2-((3,3-difluorocyclobutyl)amino)-2-oxoethyl)-1-(4-cyanopyri-din-2-yl)-N-(1H-indazol-5-yl)-5-oxopyrrolidine-2-carboxamide] the figure was < 0.1 µM; with `N#Cc1ccnc(N2C(=O)CC[C@H]2C(=O)N(c2cccc(C3CC3)c2)[C@H](C(=O)NC2CC(F)(F)C2)c2ccccc2Cl)c1` [Compound 173, (S)—N—((S)-1-(2-Chlorophenyl)-2-((3,3-difluorocyclobutyl)amino)-2-oxoethyl)-1-(4-cyanopyri-din-2-yl)-N-(3-cyclopropylphenyl)-5-oxopyrrolidine-2-carboxamide], < 0.1 µM; with `N#Cc1ccnc(N2C(=O)[C@H](O)C[C@H]2C(=O)N(c2cccc(F)c2)[C@H](C(=O)NC2CC(F)(F)C2)c2ccccc2Cl)n1` [Compound 120, (2S,4R)—N—((S)-1-(2-Chlorophenyl)-2-((3,3-difluorocyclobutyl)amino)-2-oxoethyl)-1-(4-cyanopyrimidin-2-yl)-N-(3-fluorophenyl)-4-hydroxy-5-oxopyrrolidine-2-carboxamide], 0.1 to 0.5 µM.

The compound `O=C(NC1CC(F)(F)C1)C(c1ccccc1Cl)N(C(=O)[C@@H]1CCC(=O)N1c1ccccc1)c1cccc(F)c1` (stereo partly drawn) [Compound 23] showed a concentration for half-maximal inhibition (IC50) of 0.1 to 0.5 µM.

As for `N#Cc1ccnc(N2C(=O)OC[C@H]2C(=O)N(c2cncc(F)c2)[C@H](C(=O)NC2CC(F)(F)C2)c2ccccc2Cl)c1` [Compound 135, (S)—N—((S)-1-(2-Chlorophenyl)-2-((3,3-difluorocyclobutyl)amino)-2-oxoethyl)-3-(4-cyanopyri-din-2-yl)-N-(5-fluoropyridin-3-yl)-2-oxooxazolidine-4-carboxamide], the IC50 is < 0.1 µM.

As for `O=C(NC1CC(F)(F)C1)[C@H](c1ccccc1Cl)N(C(=O)[C@@H]1COC(=O)N1c1ncccn1)c1cccc(F)c1` [Compound 9, (S)—N—((S)-1-(2-chloro-phenyl)-2-(3,3-difluorocyclo-butylamino)-2-oxoethyl)-N-(3-fluoro-phenyl)-2-oxo-3-(pyrimidin-2-yl)oxazolidine-4-carboxamide], the IC50 was < 0.1 µM. Regarding `N#Cc1ccnc(N2C(=O)N(CCO)C[C@H]2C(=O)N(c2cccc(F)c2)C(C(=O)NC2CC(F)(F)C2)c2ccccc2Cl)c1` (stereo partly drawn) [Compound 112, (4S)—N-(1-(2-Chlorophenyl)-2-(3,3-difluorocyclobutyl-amino)-2-oxoethyl)-3-(4-cyanopyridin-2-yl)-N-(3-fluorophenyl)-1-(2-hydroxyeth-yl)-2-oxoimidazolidine-4-carboxamide], the half-maximal inhibitory concentration (IC50) is < 0.1 µM.

For the compound `N#Cc1ccnc(N2C(=O)CC[C@H]2C(=O)N(c2cc(F)cc(F)c2)[C@H](C(=O)NC2CC(F)(F)C2)c2ccccc2)c1` [Compound 210, (S)-1-(4-Cyanopyridin-2-yl)-N—((S)-2-(3,3-difluorocyclobutylamino)-2-oxo-1-phenylethyl)-N-(3,5-difluorophenyl)-5-oxopyrrolidine-2-carboxamide], the half-inhibitory concentration (IC50) was < 0.1 µM. For the compound `N#Cc1ccnc(N2C(=O)[C@H](O)C[C@H]2C(=O)N(c2cc(F)cc(F)c2)[C@H](C(=O)NC2CC(F)(F)C2)c2ccccc2Cl)c1` [Compound 115, (2S,4R)—N—((S)-1-(2-Chlorophenyl)-2-((3,3-difluorocyclobutyl)amino)-2-oxoethyl)-1-(4-cyanopyridin-2-yl)-N-(3,5-difluorophenyl)-4-hydroxy-5-oxopyrrolidine-2-carboxamide], the half-inhibitory concentration (IC50) is < 0.1 µM. Turning to `O=C(NC1CC(F)(F)C1)[C@H](c1ccccc1Cl)N(C(=O)[C@@H]1COC(=O)N1c1cscn1)c1cccc(F)c1` [Compound 72], the IC50 was < 0.1 µM.

In general, IC50 refers to the concentration needed to halve the response being measured. Low readings indicate higher potency, high ones lower potency.
